One data set can be described thus: Phototoxicity studies. As to conditions: in vivo.
Data set [1] concerns S.aureus strain bearing Nor A efflux pump. The class given is cell-based. As to conditions: Nor A efflux pump strain vs strain devoid of efflux pump. As to the method: Using this set of MIC values, % loss in potency due to efflux was calculated for each of the fluoroquinolone in Table 5
In another data set the test system is Serratia marcescens 2702. As to the kind of experiment: Effect of pH on potency of fluoroquinolones (MIC at pH 5.5 and 7.0). It counts as cell-based. Conditions: MIC pH 7 vs pH 5.5. The source says: (§1) The test method was in accordance with the standard NCCLS protocol employing test media adjusted at pH 5.5 and 7.0.
For a further data set, the system named is P. rettgeri N 1764. The data set is described as above. The class given is cell-based. As to conditions: MIC pH 7 vs pH 5.5.
Description: as §1

For data set [2], the system named is Staphylococcus aureus ATCC 25923. Kind of data set: In-vitro antimicrobial activity test (MIC, NCCLS). It counts as cell-based. The source says:
(§2) The test method was in accordance with the standard NCCLS protocol.

Another data set deals with Haemophilus influenzae. As to the kind of experiment: In-vitro antimicrobial activity test (MIC, NCCLS). It counts as cell-based.
Description: as §2

In data set [3] the test system is Viridans group Streptococci. Kind of data set: In-vitro antimicrobial activity test (MIC, NCCLS). It counts as cell-based.
Description: as §2

The test system of the next data set is Serratia marcescens. As to the kind of experiment: In-vitro antimicrobial activity test (MIC, NCCLS). The class given is cell-based.
Description: as §2

The test system of a further data set is Streptococcus pyogenes. As to the kind of experiment: In-vitro antimicrobial activity test (MIC, NCCLS). The class given is cell-based.
Description: as §2

Data set [4] has as its system Streptococcus pneumoniae ATCC 6303. Kind of data set: In-vitro antimicrobial activity test (MIC, NCCLS). It counts as cell-based.
Description: as §2

In data set [5] the test system is Mycobacterium tuberculosis ATCC 27294. Kind of data set: In-vitro antimicrobial activity test (MIC, NCCLS). It counts as cell-based.
Description: as §2

Data set [6] relates to Mycobacterium intracellulare. As to the kind of experiment: In-vitro antimicrobial activity test (MIC, NCCLS). It counts as cell-based.
Description: as §2

The subject of a further data set is Mycobacterium avium. As to the kind of experiment: In-vitro antimicrobial activity test (MIC, NCCLS). It counts as cell-based.
Description: as §2

Data set [7] relates to Escherichia coli ATCC 25922. As to the kind of experiment: In-vitro antimicrobial activity test (MIC, NCCLS). The class given is cell-based.
Description: as §2

The test system of a further data set is Pseudomonas aeruginosa. Kind of data set: In-vitro antimicrobial activity test (MIC, NCCLS). It counts as cell-based.
Description: as §2

The next data set deals with Enterococcus faecium. As to the kind of experiment: In-vitro antimicrobial activity test (MIC, NCCLS). The class given is cell-based.
Description: as §2

A further data set has as its system Corynebacterium jeikeium. Kind of data set: In-vitro antimicrobial activity test (MIC, NCCLS). It counts as cell-based.
Description: as §2

Data set [8] relates to Enterococcus faecalis ATCC 29212. As to the kind of experiment: In-vitro antimicrobial activity test (MIC, NCCLS). The class given is cell-based.
Description: as §2

The next data set concerns Propioni bacterium acnes. As to the kind of experiment: In-vitro antimicrobial activity test (MIC, NCCLS). The class given is cell-based.
Description: as §2

Data set [9] deals with Chryseobacterium meningosepticum. Kind of data set: In-vitro antimicrobial activity test (MIC, NCCLS). It counts as cell-based.
Description: as §2

Another data set relates to Bacteroides fragilis. As to the kind of experiment: In-vitro antimicrobial activity test (MIC, NCCLS). The class given is cell-based.
Description: as §2

Another data set relates to MRSE STE-22. Kind of data set: In-vitro antimicrobial activity test (MIC, NCCLS). The class given is cell-based, Staphylococcus epidermidis.
Description: as §2

Data set [10] concerns Gram-positive pathogens such as staphylococci and enterococci, and Gram-negative pathogens such as E.coli, Klebsiella, Proteus, Serratia, Citrobacter, and …. Kind of data set: Antibacterial potency (MIC) at acidic pH of 5.5, summary. As to conditions: acidic pH of 5.5, some organisms. The class given is cell-based.
For data set [11] the following is noted: mouse, in vivo.
The nature of another data set: in vivo. Also noted: species or system Swiss mice. Conditions: mouse; for AUC: po, 30 mg/kg. As to the method:
The blood levels of RS-(±)-Nadifloxacin and S-(−)-Nadifloxacin administered orally to Swiss mice at a dose of 30mg/kg are shown in Table 3 with respect to the AUC (μg/ml.hr), monitored from 15 minutes to 4 hours.

In data set [12] the test system is Gram-positive and Gram-negative bacteria. Conditions: cited from earlier work.
The subject of data set [13] is Mupirocin-resistant Staph STA-34. Kind of data set: In-vitro antimicrobial activity test (MIC, NCCLS). The class given is cell-based, Staphylococcus aureus.
Description: as §2

The subject of a further data set is MRSA STA-4. As to the kind of experiment: In-vitro antimicrobial activity test (MIC, NCCLS). The class given is cell-based, Staphylococcus aureus.
Description: as §2

In data set [14] the test system is human liver cell-line Hep-G2. Kind of data set: Human liver cell line cytotoxicity assay (Minimum Toxic Dose). It counts as cell-based. Conditions: 3 hours exposure, 4 days incubation, Almar blue. On the procedure:
The procedure involved cultivation of cells of human liver cell-line Hep-G2 in DMEM medium containing 5% foetal bovine and exposure to various concentrations of trovafloxacin and S-(−)-Nadifloxacin for 3 hours. The drug containing medium was then replaced with a fresh medium and cells were incubated in 5% CO2 atmosphere at 37° C. for 4 days. Almar blue dye which is an indicative of active respiration was then added to individual sample to access the toxicity of the drugs. The hepatotoxic potential of a drug is expressed in terms of Minimum Toxic Dose (MTD) which is defined as minimum concentration of a drug which brings about inhibition of colour change from blue to pink.

For data set [15] the following is noted: in vivo.
Data set [16] in a line: Acute intravenous toxicity in mice.
A short description of data set [17]: Phlebitis on repeated i.v. administration in rats. The class given is in vivo. Conditions: doses double those of the sodium salt. The source says:
This feature would make S-(−)-9-fluoro-6,7-dihydro-8-(4-hydroxypiperidin-1-yl)-5-methyl-1-oxo-1H,5H- benzo[i,j]quinolizine-2-carboxylic acid arginine salt 0.25 H2O and S-(−)-9-fluoro-6,7-dihydro-8-[4-(hydroxy)-1-piperidin-1-yl)-5-methyl-1-oxo-1H,5H-benzo[i,j]quinolizine-2-carboxylic acid arginine salt 0.75 H2O suitable for long term i.v. administration which is commonly undertaken for critically ill patients or patients in intensive care unit.

The conditions of data set [18]: pH 6.8.

Values after ≈ are worked out from the molar mass of the structure shown. Marks after values point to notes of the source that are not given here.

In the case of `C[C@@H]1CN(c2c(F)c(N)c3c(=O)c(C(=O)O)cn(C4CC4)c3c2F)C[C@H](C)N1` [Sparfloxacin], the “phototoxic dosage, times lower than S-(−)-Nadifloxacin” value in the data set “Phototoxicity studies” is reported as 25 times.
Take `C[C@H]1CCc2c(N3CCC(O)CC3)c(F)cc3c(=O)c(C(=O)O)cn1c23` [S-(−)-Nadifloxacin, S-(−)-9-fluoro-8-(4-hydroxy-piperidin-1-yl)-5-methyl-6,7-dihydro-1-oxo-1H,5H benzo[i,j]quinolizine-2-carboxylic acid]: in data set [1], the “% loss in potency for S. aureus bearing Efflux pump” value is 0%. Besides, the “% change in potency at pH 5.5, loss (−)/gain (+)” value in the data set on Serratia marcescens 2702 and in the data set with P. rettgeri N 1764 was 0.00% each time. Moreover, the MIC in [2] was found to be 0.025 µg/mL (≈ 0.0694 µM); against Haemophilus influenzae it was 0.025 µg/mL (≈ 0.0694 µM); in data set [3], 0.2 µg/mL (≈ 0.555 µM); against Serratia marcescens it was 0.4 µg/mL (≈ 1.11 µM); against Streptococcus pyogenes, 0.2 µg/mL (≈ 0.555 µM); in [4], 0.2 µg/mL (≈ 0.555 µM). For the same compound, the MIC in data set [5] is 0.8 µg/mL (≈ 2.22 µM); in data set [6] it was 1.56 µg/mL (≈ 4.33 µM); against Mycobacterium avium, 3.12 µg/mL (≈ 8.66 µM); in data set [7], 0.2 µg/mL (≈ 0.555 µM); in the data set with Pseudomonas aeruginosa, 1.56 µg/mL (≈ 4.33 µM); in the data set on Enterococcus faecium, 0.4 µg/mL (≈ 1.11 µM). Further, the MIC in the data set on Corynebacterium jeikeium turned out to be 0.05 µg/mL (≈ 0.139 µM); in data set [8] it was 0.2 µg/mL (≈ 0.555 µM); against Propioni bacterium acnes it was 0.1 µg/mL (≈ 0.277 µM); in [9], 0.8 µg/mL (≈ 2.22 µM); in the data set on Bacteroides fragilis it was 0.8 µg/mL (≈ 2.22 µM); against MRSE STE-22, 0.4 µg/mL (≈ 1.11 µM). For the same compound, the MIC (in [13]; in the data set on MRSA STA-4) was 0.4 µg/mL (≈ 1.11 µM) in each case. For the same compound, in data set [10], the “MIC improves by” value is 100%. Moreover, in data set [11], the “acute intravenous toxicity compared with RS-(±)-Nadifloxacin” value is recorded as “significantly lower”. Further, in “in vivo”, the “oral bioavailability, times higher than RS-(±)-Nadifloxacin” value worked out at 2 times. The compound further returned an AUC in “in vivo” of 33580 ng·h/mL. The “in-vitro activity compared with racemic Nadifloxacin” value in [12] is recorded as “approximtely twice as active”. In addition, in data set [14], the “dosage tolerated by Hep-G-2 cells, times higher than trovafloxacin” value is reported as 4 times. In [15], the phototoxicity potential result is reported as “negligible phototoxicity potential”. In addition, in data set [16] (acute intravenous, mice), the LD50 was >400* mg/kg.
Consider `C[C@H]1CCc2c(N3CCC(O)CC3)c(F)cc3c(=O)c(C(=O)O)cn1c23.N=C(N)NCCC[C@H](N)C(=O)O.O` [Example 7, S-(−)-9-fluoro-6,7-dihydro-8-(4-hydroxypiperidin-1-yl)-5-methyl-1-oxo-1H,5H-benzo[i,j]quinolizine-2-carboxylic acid, arginine salt 0.25 H2O], for which, in data set [17], the phlebitis entry is given as “did not cause phlebitis”.
In the case of `CC(=O)O.C[C@@H](N)C(=O)OC1CCN(c2c(F)cc3c(=O)c(C(=O)O)cn4c3c2CC[C@@H]4C)CC1` [Example 30, 8-{4-[2(R)-Amino-propionyloxy]piperidin-1-yl}-9-fluoro-5(S)-methyl-6,7-dihydro-1-oxo-1H,5H-benzo[i,j]quinolizine-2-carboxylic acid, acetate], the Water solubility in data set [18] is greater than 250 mg/mL.
Consider `CC1CCc2c(N3CCC(O)CC3)c(F)cc3c(=O)c(C(=O)O)cn1c23` (racemic) [RS-(±)-Nadifloxacin, (±)-9-fluoro-8-(4-hydroxypiperidin-1-yl)-5-methyl-6,7-dihydro-1-oxo-1H-5H-benzo[i,j]quinolizine-2-carboxylic acid], for which the MIC in data set [2] came to 0.05 µg/mL (≈ 0.139 µM); in the data set with Haemophilus influenzae, 0.05 µg/mL (≈ 0.139 µM); in [3], 0.4 µg/mL (≈ 1.11 µM); against Serratia marcescens, 1.56 µg/mL (≈ 4.33 µM); in the data set with Streptococcus pyogenes, 0.4 µg/mL (≈ 1.11 µM); in data set [4], 0.4 µg/mL (≈ 1.11 µM). In addition, the MIC was 1.56 µg/mL (≈ 4.33 µM) in [5]; 3.12 µg/mL (≈ 8.66 µM) in data set [6]; 6.25 µg/mL (≈ 17.3 µM) in the data set on Mycobacterium avium; 0.8 µg/mL (≈ 2.22 µM) in [7]; 3.12 µg/mL (≈ 8.66 µM) in the data set with Pseudomonas aeruginosa; 0.8 µg/mL (≈ 2.22 µM) in the data set on Enterococcus faecium. The MIC was found to be 0.2 µg/mL (≈ 0.555 µM) against Corynebacterium jeikeium; 0.4 µg/mL (≈ 1.11 µM) in data set [8]; 0.2 µg/mL (≈ 0.555 µM) against Propioni bacterium acnes; 1.56 µg/mL (≈ 4.33 µM) in data set [9]; 3.12 µg/mL (≈ 8.66 µM) in the data set with Bacteroides fragilis; 1.56 µg/mL (≈ 4.33 µM) against MRSE STE-22. The MIC was found to be 1.56 µg/mL (≈ 4.33 µM) in data set [13] and 0.8 µg/mL (≈ 2.22 µM) in the data set on MRSA STA-4. In “in vivo” (Swiss), this compound showed an AUC of 16900 ng·h/mL. Also, in [16] (mouse, in vivo, iv), the LD50 was 311 mg/kg.
